# Assay results published in article PMC8697381 (ACS Omega, 2021).
# Where a SMILES comes first, the peptide text is derived from it.
# System: A431 human skin squamous cell carcinoma cells
# Experiment: In vitro cellular uptake quantified by flow cytometry
# Assay type: cell-based
# Conditions: all concentrations (0.2–25 μM), 90 min, ratio of Cf-positive cells and mean fluorescence intensity
compound,measurement,value
N=C(N)NCCC[C@H](NC(=O)[C@@H]1CCCN1C(=O)[C@H](CCC(N)=O)NC(=O)[C@H](CCCCN)NC(=O)[C@H](CC(=O)O)NC(=O)[C@@H]1CCCN1C(=O)[C@H](Cc1ccccc1)NC(=O)CNC(=O)[C@H](CCC(=O)O)NC(=O)[C@H](Cc1ccccc1)NC(=O)[C@@H](N)Cc1ccccc1)C(=O)N[C@@H](CCCCN)C(=O)N[C@@H](CCCCN)C(N)=O [Peptide S100] (H-FFEGFPDKQPRKK-NH2),"cellular uptake rate, comparison between peptides",lowest cellular uptake rate
